The test concerns the target Cav2.3 (Homo sapiens, UniProt Q15878). Kind of test: Human Cav2.3 channel calcium-influx assay. The format is cell-based. Conditions: HEK-293 T-Rex/Kir2.1/Cav2.3e-β4-α2δ1 cells, Fluo8 fluorescence, without pluronic acid; read-out: Cav2.3 (pIC50) (converted). The protocol: HEK-293 T-Rex cells were transfected with pcDNA3.1-Kir2.1 to generate a stable cell line. After antibiotic selection, the obtained stable pools were analysed using FLIPR^TETRA (membrane potential assay), and a limiting dilution was performed and a HEK-293 T-Rex/Kir2.1 clone was selected. The clone was transfected with pcDNA3.1-Cav2.3e and pBud-Cav-β4-α2δ1 to generate a stable cell line where the Cav2.3e expression is inducible. After antibiotic selection, functional clone pool analysis and two successive limiting dilutions, the final clone underwent a qPCR analysis and a biophysical and pharmacological validation using patch-clamp.
A compound plate, containing 10 test compounds in eight-points dose response with n=4, was prepared. Test compounds dose response curves were prepared in automated fashion in 100% DMSO at CyBio Felix and starting from a stock solution in 100% DMSO; a defined volume was serially moved into destination wells pre-filled with the desired DMSO volume; stock solution concentration volumes were dependent on the final compounds concentrations to be tested and the final DMSO content used in the assay. For the assay test compounds dose response curves ranged from 30 μM and half log dilution with 0.3% final DMSO. In order to obtain the 8-points dose response curve all the concentrations were created by starting from a 10 mM DMSO stock solution and then moving 9.5 μL into a destination well pre-filled with 20.5 μL of 100% DMSO and repeating this step seven times. This initial step was done into 96 MTP plates, 10 compounds/plate. One 384 MTP was then reformatted to contain all the 10 compounds at 8 concentrations, quadruplicate data points. This so obtained 384 MTP compound plate served as source plate in a “mother to child” process with a CyBi®-Well dispenser in which 0.7 μL of compounds were moved into a destination plate pre-filled with 57.6 μL of Tyrode's buffer 0 mM K+, thus obtaining 4× concentrated compounds solution. In columns 1-2 and 23-24 the control wells were added. Both “source” compound plate and “destination” compound plate were barcoded and a relationship between the two plates was thus generated.
The day before the experiment, cells were detached by gentle wash with DPBS, followed by 5 min incubation at 37° C. with Trypsin solution. Detached cells were diluted with OptiMEM+Doxycycline at 0.2 μg/mL, counted and plated in Poly-D-Lysine coated black/clear bottom (15.000 c/well in 20 μl/well) by the use of a MATRIX WellMate dispenser. Plates were placed into a humidified incubator at 37° C. with 5% CO2 until the experimental day. 24 h after seeding 10 μL/well of 1.5× Fluo8 NW dye solution prepared in Tyrode's buffer 0 mM K^+ were added on top of the seeding medium. Cell plates were incubated for 40-60 min at RT in the dark. We then Injected off-line 10 μL/well of test compounds and controls 4× concentrated in Tyrode's Buffer 0 mM K+ with the CyBi®-Well instrument. Cell plates were incubated 3 minutes at RT. Finally, we injected 20 μL/well of 3× concentrated activator solution (K20-Na130-Ca2 buffer: 20 mM KCl, 130 mM NaCl, 2 mM CaCl2, 10 mM HEPES, 10 mM Glucose, final concentrations, prepared starting from “KO-Na150-Ca2” and “K150-Na0-Ca2” buffers) at FDSS7000EX instrument and read emitted fluorescence for 130 seconds.
Data analysis was performed with Genedata Screener® software and reported compounds activity as % effect in relation to the normalization standards. The Kinetic Response Value (KRV) is calculated as follows:
KRV=Maximal fluorescence recorded from second 5 to second 130 minus baseline fluorescence, computed as average from second 1 to second 2, of the kinetic trace. The KRV was normalized versus Neutral Controls and Inhibitor Controls in order to obtain the Activity[%] for each well. […] Therefore, the compound activity values were scaled (based on the two references) to a common range (two-point normalization). […]

Sequence of Cav2.3 (Q15878 1-747 limits assumed): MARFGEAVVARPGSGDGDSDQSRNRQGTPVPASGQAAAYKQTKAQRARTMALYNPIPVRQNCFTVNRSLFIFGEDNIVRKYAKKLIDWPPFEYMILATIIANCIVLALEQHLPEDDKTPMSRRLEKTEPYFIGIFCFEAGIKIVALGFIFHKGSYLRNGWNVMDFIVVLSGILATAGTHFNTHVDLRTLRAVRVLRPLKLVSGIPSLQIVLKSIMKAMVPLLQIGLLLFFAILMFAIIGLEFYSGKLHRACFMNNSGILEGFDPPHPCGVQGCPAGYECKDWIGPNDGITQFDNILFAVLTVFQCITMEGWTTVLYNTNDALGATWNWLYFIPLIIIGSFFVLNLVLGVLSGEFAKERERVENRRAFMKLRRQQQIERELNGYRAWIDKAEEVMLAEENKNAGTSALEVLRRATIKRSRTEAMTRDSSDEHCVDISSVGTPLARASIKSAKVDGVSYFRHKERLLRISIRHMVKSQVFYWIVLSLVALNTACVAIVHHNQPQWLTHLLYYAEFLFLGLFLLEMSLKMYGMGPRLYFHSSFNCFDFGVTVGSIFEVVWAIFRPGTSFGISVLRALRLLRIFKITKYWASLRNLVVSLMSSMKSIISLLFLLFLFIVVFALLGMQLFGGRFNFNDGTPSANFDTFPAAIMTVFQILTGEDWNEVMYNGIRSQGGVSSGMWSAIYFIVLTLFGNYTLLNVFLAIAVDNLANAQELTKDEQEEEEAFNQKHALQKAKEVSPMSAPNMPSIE
Sequence of Cav2.3 (Q15878 1126-2313 limits assumed): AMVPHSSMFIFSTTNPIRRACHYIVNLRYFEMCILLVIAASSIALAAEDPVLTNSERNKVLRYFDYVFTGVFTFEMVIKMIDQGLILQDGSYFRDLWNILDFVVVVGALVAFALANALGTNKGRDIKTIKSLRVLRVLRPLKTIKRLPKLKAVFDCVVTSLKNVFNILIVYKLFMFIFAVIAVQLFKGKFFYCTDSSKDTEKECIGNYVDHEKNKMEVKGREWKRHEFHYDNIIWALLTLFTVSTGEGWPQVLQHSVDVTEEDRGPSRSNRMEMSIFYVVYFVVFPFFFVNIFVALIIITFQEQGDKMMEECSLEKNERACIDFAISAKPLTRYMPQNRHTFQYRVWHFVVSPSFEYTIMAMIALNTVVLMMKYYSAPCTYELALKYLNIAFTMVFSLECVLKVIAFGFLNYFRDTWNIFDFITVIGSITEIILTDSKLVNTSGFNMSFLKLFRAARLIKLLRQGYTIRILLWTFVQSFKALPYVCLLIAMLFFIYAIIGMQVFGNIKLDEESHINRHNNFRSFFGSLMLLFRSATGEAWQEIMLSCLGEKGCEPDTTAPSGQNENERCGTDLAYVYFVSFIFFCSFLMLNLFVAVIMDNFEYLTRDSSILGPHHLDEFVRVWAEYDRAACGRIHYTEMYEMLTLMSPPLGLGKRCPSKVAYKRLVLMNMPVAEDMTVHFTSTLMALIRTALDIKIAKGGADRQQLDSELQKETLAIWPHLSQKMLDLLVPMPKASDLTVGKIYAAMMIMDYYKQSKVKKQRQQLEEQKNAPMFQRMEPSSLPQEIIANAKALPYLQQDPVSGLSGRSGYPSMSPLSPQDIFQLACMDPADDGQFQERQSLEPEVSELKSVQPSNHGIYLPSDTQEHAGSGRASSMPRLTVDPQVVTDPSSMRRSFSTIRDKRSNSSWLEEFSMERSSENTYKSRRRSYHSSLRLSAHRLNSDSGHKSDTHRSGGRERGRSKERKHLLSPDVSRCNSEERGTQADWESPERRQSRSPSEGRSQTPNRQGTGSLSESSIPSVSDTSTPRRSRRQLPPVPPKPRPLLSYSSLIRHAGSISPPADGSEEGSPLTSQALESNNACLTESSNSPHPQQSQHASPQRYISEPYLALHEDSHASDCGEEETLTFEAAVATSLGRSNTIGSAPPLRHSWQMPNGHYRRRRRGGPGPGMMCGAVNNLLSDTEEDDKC

Turning to `CC(C)Oc1cc(S(=O)(=O)N2CC3(CCC3)CC2C)ccn1` (centres unmarked) [Example 84, 6-((2-Isopropoxypyridin-4-yl)sulfonyl)-7-methyl-6-azaspiro[3.4]octane], the IC50 is 4.47 µM.
Take `CC1CC2(CCC2)CN1S(=O)(=O)c1ccc2c(c1)OCCCO2` (centres unmarked) [Example 4, 6-((3,4-Dihydro-2H-benzo[b][1,4]dioxepin-7-yl)sulfonyl)-7-methyl-6-azaspiro[3.4]octane]: the IC50 was 4.17 µM.
For the compound `CC(=O)Nc1nnc(S(=O)(=O)N2CC3(CCC3)CC2C)s1` (centres unmarked) [Example 40, N-(5-((7-methyl-6-azaspiro[3.4]octan-6-yl)sulfonyl)-1,3,4-thiadiazol-2-yl)acetamide], the IC50 was 8.32 µM.
As for `CC1CC2(CCC2)CN1S(=O)(=O)Cc1ccccc1` (centres unmarked) [Example 2, 6-(Benzylsulfonyl)-7-methyl-6-azaspiro[3.4]octane], the IC50 is 4.27 µM.
`CC1(C)CC2(CCC2)CN1S(=O)(=O)c1ccsc1` [Example 49, 7,7-Dimethyl-6-(thiophen-3-ylsulfonyl)-6-azaspiro[3.4]octane]: the IC50 was 3.89 µM.
Turning to `CC1CC2(CCC2)CN1S(=O)(=O)c1cccc2c1CN(C(=O)C(F)(F)F)CC2` (centres unmarked) [Example 85, 2,2,2-Trifluoro-1-(8-((7-methyl-6-azaspiro[3.4]octan-6-yl)sulfonyl)-3,4-dihydroisoquinolin-2(1H)-yl)ethan-1-one], the IC50 was 19.1 µM.
The value for `CC1CC2(CCC2)CN1S(=O)(=O)c1cccs1` (single isomer, unassigned) [Example 103, 7-Methyl-6-(thiophen-2-ylsulfonyl)-6-azaspiro[3.4]octane] was 8.32 µM; that for `CC1CCC2(CCC2)CN1S(=O)(=O)c1cccs1` (centres unmarked) [Example 60, 7-Methyl-6-(thiophen-2-ylsulfonyl)-6-azaspiro[3.5]nonane] was 4.79 µM.
`Cc1nc(C)c(S(=O)(=O)N2CC3(CCC3)CC2C)s1` (single isomer, unassigned) [Example 106, 2,4-Dimethyl-5-((7-methyl-6-azaspiro[3.4]octan-6-yl)sulfonyl)thiazole]: the IC50 was 2.19 µM.
For the compound `CC1CC2(CCC2)CN1S(=O)(=O)c1nccn1C` (centres unmarked) [Example 3, 7-Methyl-6-((1-methyl-1H-imidazol-2-yl)sulfonyl)-6-azaspiro[3.4]octane], the IC50 was 30.2 µM.
Take `CCC1CC2(CCCC2)CN1S(=O)(=O)c1cccs1` (centres unmarked) [Example 97, 3-Ethyl-2-(thiophen-2-ylsulfonyl)-2-azaspiro[4.4]nonane]: the IC50 is 2.51 µM.
The same measure for `COCC1CC2(CCC2)CN1S(=O)(=O)c1cccs1` (centres unmarked) [Example 43, 7-(Methoxymethyl)-6-(thiophen-2-ylsulfonyl)-6-azaspiro[3.4]octane]: 10.2 µM.
The value for `CCOC(=O)N1CCc2ccc(S(=O)(=O)N3CC4(CCC4)CC3C)cc2C1` (single isomer, unassigned) [Example 24, Ethyl 7-((7-methyl-6-azaspiro[3.4]octan-6-yl)sulfonyl)-3,4-dihydroisoquinoline-2(1H)-carboxylate] was 1.62 µM; that for `CC1CC2(CCC2)CN1S(=O)(=O)c1cccs1` (centres unmarked) [Example 102, 7-Methyl-6-(thiophen-2-ylsulfonyl)-6-azaspiro[3.4]octane] was 2.69 µM; that for `CC1CC2(CCC2)CN1S(=O)(=O)c1ccc2[nH]c(=O)[nH]c2c1` (centres unmarked) [Example 59, 5-((7-Methyl-6-azaspiro[3.4]octan-6-yl)sulfonyl)-1,3-dihydro-2H-benzo[d]imidazol-2-one] was 11.2 µM.
With `Cc1ccc(S(=O)(=O)N2CC3(CCC3)CC2C)s1` (single isomer, unassigned) [Example 77, 7-Methyl-6-((5-methylthiophen-2-yl)sulfonyl)-6-azaspiro[3.4]octane], the IC50 was 13.8 µM.
The value for `CCC1CC2(CCCC2)CN1S(=O)(=O)c1cccs1` (single isomer, unassigned) [Example 99, 3-ethyl-2-(thiophen-2-ylsulfonyl)-2-azaspiro[4.4]nonane] was 1.91 µM.
